{"source": "paper PMC4861708", "about": "(Frontiers in Cell and Developmental Biology, 2016)", "key": {"[1]": {"tested_on": "E. coli DSM 1103 (ATCC 25922)", "type": "cell-based, Escherichia coli", "conditions": "DSM 1103, 24 h"}, "P. aeruginosa DSM 1117": {"tested_on": "P. aeruginosa DSM 1117", "test": "Transmission electron microscopy, morphological changes", "type": "cell-based, Pseudomonas aeruginosa", "conditions": "1 h", "experimental": "Peptide-bacteria mixtures were fixed (2% glutaraldehyde, 5 mmol/L CaCl2, 10 mmol/L MgCl2 in 0.1 mol/L sodium cacodylate buffer, pH 7.4) overnight at 4°C. […] Samples were rinsed with distilled water (5 × 10 min), incubated with aqueous uranylacetate (0.5% w/v) for 1 h at 4°C, washed with distilled water (3 × 10 min), and embedded in Epon. The hardened blocks were sectioned (50 nm) on a UCT ultramicrotome (Leica, Vienna, Austria), stained with uranyl acetate and lead citrate on an AC20 system (Leica), and visualized at a Tecnai 12 electron microscope (FEI, Eindhoven, The Netherlands) at 80 kV. Morphological effects were quantified on average for 25 cells per condition."}, "[2]": {"tested_on": "K. pneumoniae DSM 681 (ATCC 10031)", "type": "cell-based, Klebsiella pneumoniae", "conditions": "DSM 681, 24 h", "method_in_brief": "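Broth microdilution MIC: P. aeruginosa strains in 50 or 100% MHB, K. pneumoniae in TSB; peptides 512–4 μg/mL final. Inoculum from 1.5 × 10^7 cells/mL suspension, also high density 5 × 10^8 cells/mL; 37°C, 24 h, growth read at OD595.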"}, "[3]": {"tested_on": "P. aeruginosa DSM 1117 (ATCC 27853)", "type": "cell-based, Pseudomonas aeruginosa", "conditions": "DSM 1117, 24 h", "experimental": "MICs of P. aeruginosa strains DSM 1117 (ATCC 27853), DSM 3227 (ATCC 19429), and DSM 9644 were determined in a microdilution broth assay using 50 or 100% MHB (11.5 and 23 g/L MHB, respectively) whereas MICs of E. coli DSM 1103 (ATCC 25922) and K. pneumoniae DSM 681 (ATCC 10031) were determined in TSB (30 g/L TSB). Peptides (1 g/L in water) were serially two-fold diluted in a 96-well microtiter plate (PS, sterile, flat bottom) in 50 μL of the corresponding medium to final concentrations of 512–4 μg/mL. Bacteria were grown in nutrient broth overnight and diluted to a cell concentration of 1.5 × 10^7 cells/mL in the corresponding medium. Cell densities were determined by using the McFarland standard as reference. An aliquot (50 μL) of the cell culture was added to each well and incubated (37°C, 24 h). The OD595 was determined in a SpectraMax 340PC (Molecular Devices, Sunnyvale, USA). Additionally, MIC values were also determined for high bacteria densities (5 × 10^8 cells/mL) corresponding to the conditions used for TEM, as described above."}, "P. aeruginosa elastase": {"target": "T1, P. aeruginosa elastase (Pseudomonas aeruginosa, UniProt P14756)", "T1 construct": "purchased Merck (Darmstadt, Germany)", "T1 sequence (P14756 198-498)": "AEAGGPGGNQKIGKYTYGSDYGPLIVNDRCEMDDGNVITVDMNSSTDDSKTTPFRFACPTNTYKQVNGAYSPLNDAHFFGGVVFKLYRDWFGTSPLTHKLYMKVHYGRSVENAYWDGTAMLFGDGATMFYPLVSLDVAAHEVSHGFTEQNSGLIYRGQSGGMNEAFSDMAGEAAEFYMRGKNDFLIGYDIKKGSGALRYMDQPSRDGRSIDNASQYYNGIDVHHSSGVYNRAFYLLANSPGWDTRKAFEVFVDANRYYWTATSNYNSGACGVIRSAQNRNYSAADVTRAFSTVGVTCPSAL", "test": "Elastase assay (proteolytic stability)", "type": "in vitro ADME", "conditions": "after 6 h, elastase 12 units/mL, pH 8.3, 37°C"}}, "note": "Where a SMILES comes first, the peptide text is derived from it. The star is where a group is joined. Orn(α-tetramethylguanidino) = CN(C)C(=N[C@@H](CCCN)C(=O)*)N(C)C"}
{"smiles": "CC[C@H](C)[C@H](NC(=O)[C@H](Cc1ccc(O)cc1)NC(=O)[C@@H](NC(=O)[C@@H]1CCCN1C(=O)[C@H](CCCNC(=N)N)NC(=O)[C@H](CC(N)=O)NC(=O)[C@H](CC(N)=O)NC(=O)[C@H](CCCN)N=C(N(C)C)N(C)C)C(C)C)C(=O)N1CCC[C@H]1C(=O)N[C@@H](CCCNC(=N)N)C(=O)N1CCC[C@H]1C(=O)N[C@@H](CCCNC(=N)N)C(=O)N1CCC[C@H]1C(=O)N1CCC[C@H]1C(=O)N[C@@H](Cc1c[nH]cn1)C(=O)N1CCC[C@H]1C(=O)N[C@@H](CCCNC(=N)N)C(=O)N[C@@H](CC(C)C)C(=O)O", "note": "[Api137, gu-ONNRPVYIPRPRPPHPRL-OH, reference compound] ({Orn(α-tetramethylguanidino)}-NNRPVYIPRPRPPHPRL-OH)", "values": [{"measurement": "MIC E. coli ATCC 25922", "setting": "[1]", "value": 2, "unit": "µg/mL"}, {"measurement": "MIC E. coli DSM 1103, high inoculum", "setting": "[1]", "value": 32, "unit": "µg/mL"}, {"measurement": "Cells spongy", "setting": "P. aeruginosa DSM 1117; 32 µg/mL", "value": 0, "unit": "%"}, {"measurement": "DNA/ribosomes relocalization: +++, extremely relocalized", "setting": "P. aeruginosa DSM 1117; 32 µg/mL", "value": 0, "unit": "%"}, {"measurement": "DNA/ribosomes relocalization: +, starting", "setting": "P. aeruginosa DSM 1117; 32 µg/mL", "value": 43, "unit": "%"}, {"measurement": "DNA/ribosomes relocalization: -, no", "setting": "P. aeruginosa DSM 1117; 32 µg/mL", "value": 40, "unit": "%"}, {"measurement": "Membrane: b, broken", "setting": "P. aeruginosa DSM 1117; 32 µg/mL", "value": 0, "unit": "%"}, {"measurement": "Membrane: i, intact", "setting": "P. aeruginosa DSM 1117; 32 µg/mL", "value": 100, "unit": "%"}, {"measurement": "Membrane: r, ruptured", "setting": "P. aeruginosa DSM 1117; 32 µg/mL", "value": 0, "unit": "%"}, {"measurement": "Ribosome clustering: +++, extremely clustered", "setting": "P. aeruginosa DSM 1117; 32 µg/mL", "value": 0, "unit": "%"}, {"measurement": "Ribosome clustering: ++, clustered", "setting": "P. aeruginosa DSM 1117; 32 µg/mL", "value": 0, "unit": "%"}, {"measurement": "Ribosome clustering: +, starting", "setting": "P. aeruginosa DSM 1117; 32 µg/mL", "value": 63, "unit": "%"}, {"measurement": "Ribosome clustering: -, no", "setting": "P. aeruginosa DSM 1117; 32 µg/mL", "value": 37, "unit": "%"}, {"measurement": "Vesicle release", "setting": "P. aeruginosa DSM 1117; 32 µg/mL", "value": 43, "unit": "%"}, {"measurement": "dissociated Fragments: ++, long and thin", "setting": "P. aeruginosa DSM 1117; 32 µg/mL", "value": 0, "unit": "%"}, {"measurement": "dissociated Fragments: -, no", "setting": "P. aeruginosa DSM 1117; 32 µg/mL", "value": 87, "unit": "%"}, {"measurement": "dissociated Fragments: LV, large vesicles", "setting": "P. aeruginosa DSM 1117; 32 µg/mL", "value": 0, "unit": "%"}, {"measurement": "Cells spongy", "setting": "P. aeruginosa DSM 1117; 128 µg/mL", "value": 0, "unit": "%"}, {"measurement": "DNA/ribosomes relocalization: +++, extremely relocalized", "setting": "P. aeruginosa DSM 1117; 128 µg/mL", "value": 0, "unit": "%"}, {"measurement": "DNA/ribosomes relocalization: +, starting", "setting": "P. aeruginosa DSM 1117; 128 µg/mL", "value": 37, "unit": "%"}, {"measurement": "DNA/ribosomes relocalization: -, no", "setting": "P. aeruginosa DSM 1117; 128 µg/mL", "value": 47, "unit": "%"}, {"measurement": "Membrane: b, broken", "setting": "P. aeruginosa DSM 1117; 128 µg/mL", "value": 0, "unit": "%"}, {"measurement": "Membrane: i, intact", "setting": "P. aeruginosa DSM 1117; 128 µg/mL", "value": 100, "unit": "%"}, {"measurement": "Membrane: r, ruptured", "setting": "P. aeruginosa DSM 1117; 128 µg/mL", "value": 0, "unit": "%"}, {"measurement": "Ribosome clustering: +++, extremely clustered", "setting": "P. aeruginosa DSM 1117; 128 µg/mL", "value": 0, "unit": "%"}, {"measurement": "Ribosome clustering: ++, clustered", "setting": "P. aeruginosa DSM 1117; 128 µg/mL", "value": 0, "unit": "%"}, {"measurement": "Ribosome clustering: +, starting", "setting": "P. aeruginosa DSM 1117; 128 µg/mL", "value": 57, "unit": "%"}, {"measurement": "Ribosome clustering: -, no", "setting": "P. aeruginosa DSM 1117; 128 µg/mL", "value": 43, "unit": "%"}, {"measurement": "Vesicle release", "setting": "P. aeruginosa DSM 1117; 128 µg/mL", "value": 47, "unit": "%"}, {"measurement": "dissociated Fragments: ++, long and thin", "setting": "P. aeruginosa DSM 1117; 128 µg/mL", "value": 3, "unit": "%"}, {"measurement": "dissociated Fragments: +, small and thin", "setting": "P. aeruginosa DSM 1117; 128 µg/mL", "value": 10, "unit": "%"}, {"measurement": "dissociated Fragments: -, no", "setting": "P. aeruginosa DSM 1117; 128 µg/mL", "value": 87, "unit": "%"}, {"measurement": "dissociated Fragments: LV, large vesicles", "setting": "P. aeruginosa DSM 1117; 128 µg/mL", "value": 0, "unit": "%"}, {"measurement": "Cells spongy", "setting": "P. aeruginosa DSM 1117; 512 µg/mL", "value": 0, "unit": "%"}, {"measurement": "DNA/ribosomes relocalization: +++, extremely relocalized", "setting": "P. aeruginosa DSM 1117; 512 µg/mL", "value": 0, "unit": "%"}, {"measurement": "DNA/ribosomes relocalization: +, starting", "setting": "P. aeruginosa DSM 1117; 512 µg/mL", "value": 40, "unit": "%"}, {"measurement": "DNA/ribosomes relocalization: -, no", "setting": "P. aeruginosa DSM 1117; 512 µg/mL", "value": 47, "unit": "%"}, {"measurement": "Membrane: b, broken", "setting": "P. aeruginosa DSM 1117; 512 µg/mL", "value": 0, "unit": "%"}, {"measurement": "Membrane: i, intact", "setting": "P. aeruginosa DSM 1117; 512 µg/mL", "value": 100, "unit": "%"}, {"measurement": "Membrane: r, ruptured", "setting": "P. aeruginosa DSM 1117; 512 µg/mL", "value": 0, "unit": "%"}, {"measurement": "Ribosome clustering: +++, extremely clustered", "setting": "P. aeruginosa DSM 1117; 512 µg/mL", "value": 0, "unit": "%"}, {"measurement": "Ribosome clustering: ++, clustered", "setting": "P. aeruginosa DSM 1117; 512 µg/mL", "value": 0, "unit": "%"}, {"measurement": "Ribosome clustering: +, starting", "setting": "P. aeruginosa DSM 1117; 512 µg/mL", "value": 30, "unit": "%"}, {"measurement": "Ribosome clustering: -, no", "setting": "P. aeruginosa DSM 1117; 512 µg/mL", "value": 70, "unit": "%"}, {"measurement": "Vesicle release", "setting": "P. aeruginosa DSM 1117; 512 µg/mL", "value": 37, "unit": "%"}, {"measurement": "dissociated Fragments: ++, long and thin", "setting": "P. aeruginosa DSM 1117; 512 µg/mL", "value": 3, "unit": "%"}, {"measurement": "dissociated Fragments: +, small and thin", "setting": "P. aeruginosa DSM 1117; 512 µg/mL", "value": 0, "unit": "%"}, {"measurement": "dissociated Fragments: -, no", "setting": "P. aeruginosa DSM 1117; 512 µg/mL", "value": 97, "unit": "%"}, {"measurement": "dissociated Fragments: LV, large vesicles", "setting": "P. aeruginosa DSM 1117; 512 µg/mL", "value": 0, "unit": "%"}, {"measurement": "MIC K. pneumoniae DSM 681", "setting": "[2]", "value": 16, "unit": "µg/mL"}, {"measurement": "MIC P. aeruginosa DSM 1117, high inoculum", "setting": "[3]", "value": 128, "unit": "µg/mL"}, {"measurement": "Peptide remaining with elastase", "setting": "P. aeruginosa elastase", "value": "fully recovered"}]}
